Data on five compounds can be found in ChEMBL document CHEMBL5442219.

Holding throughout (settings): Compound concentration 10 µM
The target in assay [1] is T1, Alpha-2C adrenergic receptor (Homo sapiens) (UniProt P18825).
T1 sequence (whole entry): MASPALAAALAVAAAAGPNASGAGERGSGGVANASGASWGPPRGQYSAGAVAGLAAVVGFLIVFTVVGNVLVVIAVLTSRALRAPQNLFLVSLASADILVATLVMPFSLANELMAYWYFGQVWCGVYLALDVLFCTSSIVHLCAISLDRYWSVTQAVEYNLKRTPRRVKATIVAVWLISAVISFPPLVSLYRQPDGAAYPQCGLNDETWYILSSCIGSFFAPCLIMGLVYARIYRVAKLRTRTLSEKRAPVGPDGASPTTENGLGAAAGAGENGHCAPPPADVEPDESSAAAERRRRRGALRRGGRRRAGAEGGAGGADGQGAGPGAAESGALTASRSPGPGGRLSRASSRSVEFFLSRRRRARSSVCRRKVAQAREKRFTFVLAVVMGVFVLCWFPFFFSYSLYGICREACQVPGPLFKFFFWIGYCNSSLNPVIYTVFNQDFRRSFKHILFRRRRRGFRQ
Description: PDSP Primary Binding target: ADRA2C - Compounds are tested at 10 uM concentration, plate are incubated at room temperature in the dark for 90 minutes. Reaction are stopped by vacuum filtration onto 0.3% polyethyleneimine soaked filter mats using Filtermate harvester. Scintilation cocktail is then melted onto microwave-dried filters on a hot plate and the radio activity is counted in Microbia counter.

In assay [2] the target is Beta-1 adrenergic receptor (Homo sapiens) (UniProt P08588).
Sequence of Beta-1 adrenergic receptor (Homo sapiens) (P08588 whole entry, looked up): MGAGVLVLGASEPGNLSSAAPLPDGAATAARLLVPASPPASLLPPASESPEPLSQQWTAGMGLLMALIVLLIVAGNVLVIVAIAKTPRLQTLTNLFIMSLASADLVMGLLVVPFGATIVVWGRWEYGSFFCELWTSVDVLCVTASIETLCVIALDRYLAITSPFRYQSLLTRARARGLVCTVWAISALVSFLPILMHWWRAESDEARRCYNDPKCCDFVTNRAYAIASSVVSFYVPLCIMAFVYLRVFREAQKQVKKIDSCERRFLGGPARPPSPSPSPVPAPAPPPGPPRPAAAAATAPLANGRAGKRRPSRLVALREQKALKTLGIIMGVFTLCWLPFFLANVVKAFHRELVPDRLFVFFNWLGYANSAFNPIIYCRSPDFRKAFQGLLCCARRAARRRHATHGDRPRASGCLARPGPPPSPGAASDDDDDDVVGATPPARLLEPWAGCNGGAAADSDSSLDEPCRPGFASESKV
Description: PDSP Primary Binding target: ADRB1 - Compounds are tested at 10 uM concentration, plate are incubated at room temperature in the dark for 90 minutes. Reaction are stopped by vacuum filtration onto 0.3% polyethyleneimine soaked filter mats using Filtermate harvester. Scintilation cocktail is then melted onto microwave-dried filters on a hot plate and the radio activity is counted in Microbia counter.
The target of assay [3] is Beta-2 adrenergic receptor (Homo sapiens) (UniProt P07550).
Sequence of Beta-2 adrenergic receptor (Homo sapiens) (P07550 whole entry, looked up): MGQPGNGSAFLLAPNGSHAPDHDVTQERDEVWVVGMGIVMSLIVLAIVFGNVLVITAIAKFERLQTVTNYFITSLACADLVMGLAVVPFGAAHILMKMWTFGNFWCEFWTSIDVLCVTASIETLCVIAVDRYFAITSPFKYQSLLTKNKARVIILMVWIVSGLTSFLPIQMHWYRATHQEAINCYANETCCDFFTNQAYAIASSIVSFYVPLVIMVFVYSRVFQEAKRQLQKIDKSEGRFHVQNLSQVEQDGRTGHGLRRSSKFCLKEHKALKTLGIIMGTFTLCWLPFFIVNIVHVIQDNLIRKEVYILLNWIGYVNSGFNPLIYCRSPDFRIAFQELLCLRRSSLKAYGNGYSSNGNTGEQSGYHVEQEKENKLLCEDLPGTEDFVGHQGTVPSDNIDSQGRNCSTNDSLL
Description: PDSP Primary Binding target: ADRB2 - Compounds are tested at 10 uM concentration, plate are incubated at room temperature in the dark for 90 minutes. Reaction are stopped by vacuum filtration onto 0.3% polyethyleneimine soaked filter mats using Filtermate harvester. Scintilation cocktail is then melted onto microwave-dried filters on a hot plate and the radio activity is counted in Microbia counter.
Assay [4] addresses T2, Muscarinic acetylcholine receptor M1 (Homo sapiens) (UniProt P11229).
T2 sequence (whole entry): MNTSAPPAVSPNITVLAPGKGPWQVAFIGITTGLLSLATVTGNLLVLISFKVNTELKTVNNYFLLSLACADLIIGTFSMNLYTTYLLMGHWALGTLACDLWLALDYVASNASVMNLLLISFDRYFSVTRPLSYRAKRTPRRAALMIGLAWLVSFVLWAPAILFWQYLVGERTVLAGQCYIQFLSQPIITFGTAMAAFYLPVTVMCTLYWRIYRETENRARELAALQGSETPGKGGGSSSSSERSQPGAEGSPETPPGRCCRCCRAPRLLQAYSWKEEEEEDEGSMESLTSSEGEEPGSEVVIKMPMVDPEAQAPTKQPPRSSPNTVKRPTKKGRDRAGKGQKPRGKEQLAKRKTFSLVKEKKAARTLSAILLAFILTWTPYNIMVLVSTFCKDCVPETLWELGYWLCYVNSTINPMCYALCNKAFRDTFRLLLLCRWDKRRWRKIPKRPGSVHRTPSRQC
Description: PDSP Primary Binding target: CHRM1 - Compounds are tested at 10 uM concentration, plate are incubated at room temperature in the dark for 90 minutes. Reaction are stopped by vacuum filtration onto 0.3% polyethyleneimine soaked filter mats using Filtermate harvester. Scintilation cocktail is then melted onto microwave-dried filters on a hot plate and the radio activity is counted in Microbia counter.

For assay [5], the target named is D(1B) dopamine receptor (Homo sapiens) (UniProt P21918).
Sequence of D(1B) dopamine receptor (Homo sapiens) (P21918 whole entry): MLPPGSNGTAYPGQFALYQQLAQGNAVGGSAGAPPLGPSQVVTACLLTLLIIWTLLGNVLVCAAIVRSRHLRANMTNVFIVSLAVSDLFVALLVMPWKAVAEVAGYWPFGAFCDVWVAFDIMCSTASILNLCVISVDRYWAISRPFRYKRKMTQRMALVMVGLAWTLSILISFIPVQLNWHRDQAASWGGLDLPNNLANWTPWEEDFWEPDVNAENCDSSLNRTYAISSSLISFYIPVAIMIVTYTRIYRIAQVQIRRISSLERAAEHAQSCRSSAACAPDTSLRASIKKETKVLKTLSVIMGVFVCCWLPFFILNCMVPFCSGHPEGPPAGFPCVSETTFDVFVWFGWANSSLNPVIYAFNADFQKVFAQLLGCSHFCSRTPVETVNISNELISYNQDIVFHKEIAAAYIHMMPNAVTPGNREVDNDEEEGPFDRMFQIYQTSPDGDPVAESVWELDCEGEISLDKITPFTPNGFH
Description: PDSP Primary Binding target: DRD5 - Compounds are tested at 10 uM concentration, plate are incubated at room temperature in the dark for 90 minutes. Reaction are stopped by vacuum filtration onto 0.3% polyethyleneimine soaked filter mats using Filtermate harvester. Scintilation cocktail is then melted onto microwave-dried filters on a hot plate and the radio activity is counted in Microbia counter.
For assay [6], the target named is Histamine H3 receptor (Homo sapiens) (UniProt Q9Y5N1).
Sequence of Histamine H3 receptor (Homo sapiens) (Q9Y5N1 whole entry): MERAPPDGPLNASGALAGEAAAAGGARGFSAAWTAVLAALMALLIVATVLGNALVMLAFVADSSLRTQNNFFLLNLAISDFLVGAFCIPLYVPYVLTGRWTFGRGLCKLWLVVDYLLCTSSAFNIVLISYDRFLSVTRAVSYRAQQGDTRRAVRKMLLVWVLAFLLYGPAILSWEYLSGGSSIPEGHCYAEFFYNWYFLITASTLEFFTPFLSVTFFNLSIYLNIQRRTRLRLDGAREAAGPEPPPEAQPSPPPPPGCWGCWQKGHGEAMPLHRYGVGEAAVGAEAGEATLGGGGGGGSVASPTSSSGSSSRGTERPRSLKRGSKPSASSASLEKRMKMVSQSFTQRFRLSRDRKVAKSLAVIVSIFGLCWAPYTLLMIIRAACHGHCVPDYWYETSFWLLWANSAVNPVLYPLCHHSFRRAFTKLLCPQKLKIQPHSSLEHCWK
Description: PDSP Primary Binding target: HRH3 - Compounds are tested at 10 uM concentration, plate are incubated at room temperature in the dark for 90 minutes. Reaction are stopped by vacuum filtration onto 0.3% polyethyleneimine soaked filter mats using Filtermate harvester. Scintilation cocktail is then melted onto microwave-dried filters on a hot plate and the radio activity is counted in Microbia counter.
Assay [7] has as its target T3, 5-hydroxytryptamine receptor 1A (Homo sapiens) (UniProt P08908).
T3 sequence (whole entry): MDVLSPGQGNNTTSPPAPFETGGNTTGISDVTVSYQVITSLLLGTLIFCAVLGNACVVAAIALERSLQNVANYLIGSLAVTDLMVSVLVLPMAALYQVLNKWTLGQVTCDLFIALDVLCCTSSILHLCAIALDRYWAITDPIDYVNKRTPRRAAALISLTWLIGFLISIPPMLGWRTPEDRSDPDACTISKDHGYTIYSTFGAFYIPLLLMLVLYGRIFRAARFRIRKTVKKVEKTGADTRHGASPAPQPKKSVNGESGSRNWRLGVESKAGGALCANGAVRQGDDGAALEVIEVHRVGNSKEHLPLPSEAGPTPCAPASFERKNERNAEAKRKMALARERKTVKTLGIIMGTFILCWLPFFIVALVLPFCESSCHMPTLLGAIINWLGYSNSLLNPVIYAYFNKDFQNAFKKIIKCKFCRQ
Description: PDSP Primary Binding target: HTR1A - Compounds are tested at 10 uM concentration, plate are incubated at room temperature in the dark for 90 minutes. Reaction are stopped by vacuum filtration onto 0.3% polyethyleneimine soaked filter mats using Filtermate harvester. Scintilation cocktail is then melted onto microwave-dried filters on a hot plate and the radio activity is counted in Microbia counter.

The target of assay [8] is 5-hydroxytryptamine receptor 2A (Homo sapiens) (UniProt P28223).
Sequence of 5-hydroxytryptamine receptor 2A (Homo sapiens) (P28223 whole entry): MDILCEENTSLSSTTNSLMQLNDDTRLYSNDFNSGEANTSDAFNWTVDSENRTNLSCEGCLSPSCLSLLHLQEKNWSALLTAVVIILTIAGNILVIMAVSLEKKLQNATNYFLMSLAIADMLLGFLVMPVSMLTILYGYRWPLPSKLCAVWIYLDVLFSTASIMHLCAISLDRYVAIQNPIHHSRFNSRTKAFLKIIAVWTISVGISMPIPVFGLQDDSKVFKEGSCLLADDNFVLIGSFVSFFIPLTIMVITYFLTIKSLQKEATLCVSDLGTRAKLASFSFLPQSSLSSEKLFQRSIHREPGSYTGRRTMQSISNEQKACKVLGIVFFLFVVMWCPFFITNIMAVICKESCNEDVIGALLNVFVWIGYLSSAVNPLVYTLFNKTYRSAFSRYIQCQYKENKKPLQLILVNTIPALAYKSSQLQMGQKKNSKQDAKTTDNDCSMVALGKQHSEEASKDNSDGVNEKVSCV
Description: PDSP Primary Binding target: HTR2A - Compounds are tested at 10 uM concentration, plate are incubated at room temperature in the dark for 90 minutes. Reaction are stopped by vacuum filtration onto 0.3% polyethyleneimine soaked filter mats using Filtermate harvester. Scintilation cocktail is then melted onto microwave-dried filters on a hot plate and the radio activity is counted in Microbia counter.
Assay [9] concerns the target T4, 5-hydroxytryptamine receptor 2C (Homo sapiens) (UniProt P28335).
T4 sequence (whole entry): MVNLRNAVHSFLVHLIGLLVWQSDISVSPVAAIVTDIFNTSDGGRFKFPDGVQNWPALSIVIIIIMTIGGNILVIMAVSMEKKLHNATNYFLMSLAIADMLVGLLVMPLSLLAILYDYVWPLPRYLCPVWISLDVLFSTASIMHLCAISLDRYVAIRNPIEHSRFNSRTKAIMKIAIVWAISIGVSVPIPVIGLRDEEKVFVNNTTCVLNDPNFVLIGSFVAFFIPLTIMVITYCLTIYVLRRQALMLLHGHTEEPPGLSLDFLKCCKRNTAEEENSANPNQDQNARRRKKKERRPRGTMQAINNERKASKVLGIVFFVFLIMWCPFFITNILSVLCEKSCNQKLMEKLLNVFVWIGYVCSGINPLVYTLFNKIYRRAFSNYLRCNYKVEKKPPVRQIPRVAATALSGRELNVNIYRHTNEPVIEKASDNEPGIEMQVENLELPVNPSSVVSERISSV
Description: PDSP Primary Binding target: HTR2C - Compounds are tested at 10 uM concentration, plate are incubated at room temperature in the dark for 90 minutes. Reaction are stopped by vacuum filtration onto 0.3% polyethyleneimine soaked filter mats using Filtermate harvester. Scintilation cocktail is then melted onto microwave-dried filters on a hot plate and the radio activity is counted in Microbia counter.

Assay [10] deals with 5-hydroxytryptamine receptor 5A (Homo sapiens) (UniProt P47898).
Sequence of 5-hydroxytryptamine receptor 5A (Homo sapiens) (P47898 whole entry): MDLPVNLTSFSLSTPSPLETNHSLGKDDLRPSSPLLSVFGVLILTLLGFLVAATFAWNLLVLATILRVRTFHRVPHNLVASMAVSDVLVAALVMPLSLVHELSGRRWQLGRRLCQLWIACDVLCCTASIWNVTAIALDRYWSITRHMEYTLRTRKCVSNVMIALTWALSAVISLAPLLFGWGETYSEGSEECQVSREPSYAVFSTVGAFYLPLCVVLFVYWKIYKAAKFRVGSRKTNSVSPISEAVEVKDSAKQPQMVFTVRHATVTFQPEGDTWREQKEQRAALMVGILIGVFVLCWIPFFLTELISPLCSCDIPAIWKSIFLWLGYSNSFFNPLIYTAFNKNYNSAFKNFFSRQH
Description: PDSP Primary Binding target: HTR5A - Compounds are tested at 10 uM concentration, plate are incubated at room temperature in the dark for 90 minutes. Reaction are stopped by vacuum filtration onto 0.3% polyethyleneimine soaked filter mats using Filtermate harvester. Scintilation cocktail is then melted onto microwave-dried filters on a hot plate and the radio activity is counted in Microbia counter.
Assay [11] has as its target Delta-type opioid receptor (Homo sapiens) (UniProt P41143).
Description: PDSP Primary Binding target: OPRD1 - Compounds are tested at 10 uM concentration, plate are incubated at room temperature in the dark for 90 minutes. Reaction are stopped by vacuum filtration onto 0.3% polyethyleneimine soaked filter mats using Filtermate harvester. Scintilation cocktail is then melted onto microwave-dried filters on a hot plate and the radio activity is counted in Microbia counter.
The target in assay [12] is Mu-type opioid receptor (Homo sapiens) (UniProt P35372).
Sequence of Mu-type opioid receptor (Homo sapiens) (P35372 whole entry): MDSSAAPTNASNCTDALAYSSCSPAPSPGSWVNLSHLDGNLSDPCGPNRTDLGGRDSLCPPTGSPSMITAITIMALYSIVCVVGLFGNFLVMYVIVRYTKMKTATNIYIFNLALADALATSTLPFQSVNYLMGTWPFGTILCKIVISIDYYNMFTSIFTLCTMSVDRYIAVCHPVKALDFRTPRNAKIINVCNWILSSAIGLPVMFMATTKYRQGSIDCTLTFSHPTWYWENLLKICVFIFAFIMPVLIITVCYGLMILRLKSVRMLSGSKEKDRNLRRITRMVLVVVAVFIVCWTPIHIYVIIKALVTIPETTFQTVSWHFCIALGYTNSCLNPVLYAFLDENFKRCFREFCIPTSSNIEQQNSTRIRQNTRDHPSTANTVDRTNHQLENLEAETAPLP
Description: PDSP Primary Binding target: OPRM1 - Compounds are tested at 10 uM concentration, plate are incubated at room temperature in the dark for 90 minutes. Reaction are stopped by vacuum filtration onto 0.3% polyethyleneimine soaked filter mats using Filtermate harvester. Scintilation cocktail is then melted onto microwave-dried filters on a hot plate and the radio activity is counted in Microbia counter.
The target of assay [13] is Sodium-dependent dopamine transporter (Homo sapiens) (UniProt Q01959).
Sequence of Sodium-dependent dopamine transporter (Homo sapiens) (Q01959 whole entry): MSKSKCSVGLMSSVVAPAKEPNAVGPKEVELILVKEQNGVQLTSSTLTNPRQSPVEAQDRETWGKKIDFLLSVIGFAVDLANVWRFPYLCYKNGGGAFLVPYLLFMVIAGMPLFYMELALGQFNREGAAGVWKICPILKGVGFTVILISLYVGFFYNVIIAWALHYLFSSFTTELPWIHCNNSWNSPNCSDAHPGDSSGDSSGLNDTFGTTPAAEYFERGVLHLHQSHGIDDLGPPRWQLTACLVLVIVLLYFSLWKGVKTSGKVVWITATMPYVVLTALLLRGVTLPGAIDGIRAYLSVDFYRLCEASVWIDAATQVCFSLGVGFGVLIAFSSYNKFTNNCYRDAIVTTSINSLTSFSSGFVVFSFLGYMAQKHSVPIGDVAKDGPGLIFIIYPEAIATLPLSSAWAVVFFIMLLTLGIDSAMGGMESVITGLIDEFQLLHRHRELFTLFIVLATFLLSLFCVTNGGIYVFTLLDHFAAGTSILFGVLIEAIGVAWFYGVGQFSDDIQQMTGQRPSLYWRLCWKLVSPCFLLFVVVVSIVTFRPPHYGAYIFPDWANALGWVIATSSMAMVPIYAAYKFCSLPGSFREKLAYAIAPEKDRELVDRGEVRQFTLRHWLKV
Description: PDSP Primary Binding target: SLC6A3 - Compounds are tested at 10 uM concentration, plate are incubated at room temperature in the dark for 90 minutes. Reaction are stopped by vacuum filtration onto 0.3% polyethyleneimine soaked filter mats using Filtermate harvester. Scintilation cocktail is then melted onto microwave-dried filters on a hot plate and the radio activity is counted in Microbia counter.
Assay [14] deals with T5, Muscarinic acetylcholine receptor M4 (Homo sapiens) (UniProt P08173).
T5 sequence (whole entry): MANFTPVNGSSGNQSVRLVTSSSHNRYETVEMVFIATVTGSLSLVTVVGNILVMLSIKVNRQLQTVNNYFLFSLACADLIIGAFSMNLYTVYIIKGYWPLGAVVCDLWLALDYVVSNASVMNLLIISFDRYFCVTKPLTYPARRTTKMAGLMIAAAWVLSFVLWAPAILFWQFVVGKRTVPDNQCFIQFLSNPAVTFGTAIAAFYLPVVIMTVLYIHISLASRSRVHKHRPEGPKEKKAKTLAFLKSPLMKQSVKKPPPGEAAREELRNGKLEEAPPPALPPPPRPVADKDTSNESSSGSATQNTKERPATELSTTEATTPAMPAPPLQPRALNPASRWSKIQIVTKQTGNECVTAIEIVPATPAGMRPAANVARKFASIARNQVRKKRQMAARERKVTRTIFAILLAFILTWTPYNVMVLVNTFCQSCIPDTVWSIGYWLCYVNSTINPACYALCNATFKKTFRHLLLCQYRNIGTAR
Description: PDSP Primary Binding target: CHRM4 - Compounds are tested at 10 uM concentration, plate are incubated at room temperature in the dark for 90 minutes. Reaction are stopped by vacuum filtration onto 0.3% polyethyleneimine soaked filter mats using Filtermate harvester. Scintilation cocktail is then melted onto microwave-dried filters on a hot plate and the radio activity is counted in Microbia counter.

For assay [15], the target named is Kappa-type opioid receptor (Homo sapiens) (UniProt P41145).
Sequence of Kappa-type opioid receptor (Homo sapiens) (P41145 whole entry): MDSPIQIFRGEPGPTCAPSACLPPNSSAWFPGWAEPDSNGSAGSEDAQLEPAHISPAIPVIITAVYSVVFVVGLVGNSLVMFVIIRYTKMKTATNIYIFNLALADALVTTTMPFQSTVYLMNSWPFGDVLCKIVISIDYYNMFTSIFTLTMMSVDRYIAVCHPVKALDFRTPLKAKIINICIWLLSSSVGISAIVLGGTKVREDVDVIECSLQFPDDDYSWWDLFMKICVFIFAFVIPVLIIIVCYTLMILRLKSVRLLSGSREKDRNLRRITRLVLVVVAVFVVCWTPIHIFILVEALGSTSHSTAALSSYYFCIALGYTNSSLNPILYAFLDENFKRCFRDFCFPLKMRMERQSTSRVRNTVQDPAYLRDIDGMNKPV
Description: PDSP Primary Binding target: OPRK1 - Compounds are tested at 10 uM concentration, plate are incubated at room temperature in the dark for 90 minutes. Reaction are stopped by vacuum filtration onto 0.3% polyethyleneimine soaked filter mats using Filtermate harvester. Scintilation cocktail is then melted onto microwave-dried filters on a hot plate and the radio activity is counted in Microbia counter.

Sequence of Delta-type opioid receptor (Homo sapiens) (P41143 whole entry): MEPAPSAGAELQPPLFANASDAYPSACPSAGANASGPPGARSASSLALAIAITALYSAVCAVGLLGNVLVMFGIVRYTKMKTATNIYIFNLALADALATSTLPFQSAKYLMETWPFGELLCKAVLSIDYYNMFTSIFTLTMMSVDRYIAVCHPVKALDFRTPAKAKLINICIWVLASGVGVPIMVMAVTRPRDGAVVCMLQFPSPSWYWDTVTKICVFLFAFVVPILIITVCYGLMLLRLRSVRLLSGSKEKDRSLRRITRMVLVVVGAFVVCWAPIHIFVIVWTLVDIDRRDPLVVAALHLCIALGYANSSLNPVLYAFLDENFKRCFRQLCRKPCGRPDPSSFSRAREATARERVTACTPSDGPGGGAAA

`COC1CCN(c2cccc(-c3cc(NC(C)=O)nc(-n4nc(C)cc4C)n3)n2)CC1`: the inhibition – broadly, the relative decrease from the control value, in per cent – was 26.3% in assay [1]; 41.4% in assay [2]; 2.28% in [3]; 1.9% in [4]; 3.58% in [5]; 1.55% in assay [6]. The inhibition in assay [7] was 23.3%; in assay [8] it was 1.6%; in assay [9], 3.48%; in assay [10], -1.72%; in assay [11], -6%; in assay [12] it was 27.3%. In addition, in [13], the inhibition was 49.2%.

In the case of `COc1ccnc(N2CCC3(CCCN(Cc4c[nH]c5ccccc45)C3=O)CC2)n1`, the inhibition in assay [1] was 4.51%; in [3] it was 11.9%; in assay [4], 0.43%; in assay [14], -7.79%; in assay [5] it was 20.4%; in assay [6], 0.7%. Also, the inhibition in assay [7] is 72.4%; in [8], 7.53%; in assay [9], 0.97%; in assay [10], -9.26%; in assay [11], 41.8%; in [15], 6.61%. The results for the inhibition in assay [12] and in assay [13] were -4.41% and 44.7%, respectively.

Regarding `Cc1csc(NC(=O)c2cc(F)cc(Oc3cncnc3)c2)n1`, the inhibition in [1] is 6.42%; in [2], -2.16%; in assay [3], 8.79%; in assay [4], -0.94%; in [14], -5.33%; in [5] it was 46%. In addition, the inhibition in assay [6] was 2.1%; in assay [7] it was 20.4%; in assay [8], 1.92%; in [9], 0.59%; in assay [10] it was -6.54%; in assay [11], -0.43%. In addition, the inhibition in assay [15] was 18.9%; in assay [12], -8.28%; in assay [13], 56.1%.

`Cc1nnn(-c2ccc(-c3ccc(C4(C(=O)O)CC4)cc3)cc2)c1NC(=O)O[C@H](C)c1ccccc1`: the inhibition is 2.71% in [1]; -7.78% in assay [2]; 6.66% in [3]; 7.62% in assay [4]; 43.6% in assay [5]; -3.65% in [6]. Also, the inhibition in assay [7] is 2.96%; in assay [8] it was 2.49%; in assay [10] it was 15.6%; in assay [11], 7.05%; in [15], -4.59%; in assay [12], -8.07%. Moreover, the inhibition in assay [13] is 35%.

On to `Cc1c(C2=CCN(C(=O)N(C)C(C)C)CC2)nnn1-c1cccnc1F`, for which the inhibition in assay [1] was 9.65%; in assay [2], -5.97%; in [3], -6.84%; in [4] it was 2.87%; in assay [14], -9.61%; in [6], -3.59%. Moreover, the inhibition in [7] was 17%; in assay [8], 85.9%; in assay [9], -0.1%; in assay [10] it was 7.43%; in assay [12], 36.2%.
